Experimental data reported in PubChem BioAssay AID256 (DTP/NCI, 2004).
“And” between values parts separate entries of the source, which are not always exact repeats. Equal values may be shown once. Inconclusive results and toxic doses are left out. How the source made its calls: active means survival T/C of 150% or more; inactive means T/C below 125% in these data.

Tested on: CD2F1 mice, L1210 leukemia ip, survival T/C
Test: NCI In Vivo Anticancer Drug Screen. Data for tumor model L1210 Leukemia (intraperitoneal) in CD2F1 (CDF1) mice
Conditions: higher = longer survival
In short: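 Implant tumor; dose compound or vehicle; measure endpoint in both groups; report treated divided by control.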

[1] = endpoint: mean survival time, dose: 12.5 mg/kg/injection, schedule: Q01DX009 (ip), vehicle: water
[2] = endpoint: mean survival time, dose: 25.0 mg/kg/injection, schedule: Q01DX009 (ip), vehicle: water
[3] = endpoint: mean survival time, dose: 100.0 mg/kg/injection, schedule: Q01DX009 (ip), vehicle: saline with Tween-80
[4] = endpoint: mean survival time, dose: 100.0 mg/kg/injection, schedule: Q04DX003 (ip), vehicle: saline with Tween-80
[5] = endpoint: mean survival time, dose: 200.0 mg/kg/injection, schedule: Q01DX009 (ip), vehicle: saline with Tween-80
[6] = endpoint: mean survival time, dose: 200.0 mg/kg/injection, schedule: Q04DX003 (ip), vehicle: saline with Tween-80
[7] = endpoint: mean survival time, dose: 400.0 mg/kg/injection, schedule: Q01DX009 (ip), vehicle: saline with Tween-80
[8] = endpoint: mean survival time, dose: 400.0 mg/kg/injection, schedule: Q04DX003 (ip), vehicle: saline with Tween-80
[9] = endpoint: mean survival time, dose: 100.0 mg/kg/injection, schedule: Q04DX003 (ip), vehicle: Klucel (hydroxypropylcellulose) (HPC)

Measured: T/C

C[n+]1c(-c2cc(Cl)cc(Cl)c2)c2cc(N)ccc2c2ccccc21
inactive: endpoint: mean survival time, dose: 6.25 mg/kg/injection, schedule: Q01DX009 (ip), vehicle: water 108 % of control | [1] 108 % of control | [2] 104 % of control

Nc1ccc(CCCCc2ccc(Cl)c(S(=O)(=O)F)c2)c(Cl)c1
inactive: [3] 95 % of control | [4] 95 % of control | [5] 92 % of control | [6] 101 % of control | [7] 94 % of control | [8] 94 % of control

CCCCCCCCCC(O)CCCCCCCCC
inactive: endpoint: mean survival time, dose: 100.0 mg/kg/injection, schedule: Q01DX009 (ip), vehicle: other 102 % of control | endpoint: mean survival time, dose: 100.0 mg/kg/injection, schedule: Q04DX003 (ip), vehicle: other 103 % of control | endpoint: mean survival time, dose: 200.0 mg/kg/injection, schedule: Q01DX009 (ip), vehicle: other 91 % of control | endpoint: mean survival time, dose: 200.0 mg/kg/injection, schedule: Q04DX003 (ip), vehicle: other 94 % of control | endpoint: mean survival time, dose: 400.0 mg/kg/injection, schedule: Q01DX009 (ip), vehicle: other 91 % of control | endpoint: mean survival time, dose: 400.0 mg/kg/injection, schedule: Q04DX003 (ip), vehicle: other 94 % of control

Brc1ccccc1-c1ccccc1-c1ccccc1
inactive: [3] 106 % of control | [5] 101 % of control | [7] 101 % of control

CC(=O)C(c1ccccc1)N(C)C(=O)c1ccccc1 (stereo unspecified)
inactive: endpoint: mean survival time, dose: 100.0 mg/kg/injection, schedule: Q01DX009 (ip), vehicle: saline 95 % of control | endpoint: mean survival time, dose: 200.0 mg/kg/injection, schedule: Q01DX009 (ip), vehicle: saline 94 % of control | endpoint: mean survival time, dose: 400.0 mg/kg/injection, schedule: Q01DX009 (ip), vehicle: saline 104 % of control

CCC(=O)c1ccc2c(c1)N(CCCN1CCN(CCO)CC1)c1ccccc1S2
inactive: endpoint: mean survival time, dose: 25.0 mg/kg/injection, schedule: Q04DX003 (ip), vehicle: Klucel (hydroxypropylcellulose) (HPC) 97 % of control | [9] 116 % of control

Cc1[nH]c2ccccc2c1C(=O)C(N)=O
inactive: [3] 100 % of control | [4] 92 % of control | [5] 97 % of control | [6] 86 % of control | [7] 95 % of control | [8] 92 % of control

CCCCCCCCCCCC#N
inactive: [9] 102 % of control | endpoint: mean survival time, dose: 200.0 mg/kg/injection, schedule: Q04DX003 (ip), vehicle: Klucel (hydroxypropylcellulose) (HPC) 97 % of control | endpoint: mean survival time, dose: 400.0 mg/kg/injection, schedule: Q04DX003 (ip), vehicle: Klucel (hydroxypropylcellulose) (HPC) 104 % of control

CC(C)NCCCC(=O)O
inactive: [1] 96 % of control | [2] 98 % of control | endpoint: mean survival time, dose: 50.0 mg/kg/injection, schedule: Q01DX009 (ip), vehicle: water 90 % of control | endpoint: mean survival time, dose: 100.0 mg/kg/injection, schedule: Q01DX009 (ip), vehicle: water 98 % of control | endpoint: mean survival time, dose: 200.0 mg/kg/injection, schedule: Q01DX009 (ip), vehicle: water 95 % of control

O=S(=O)(O)O.[NH2-].[NH2-].[Pt+2]
inactive: endpoint: mean survival time, dose: 0.63 mg/kg/injection, schedule: Q04DX003 (ip), vehicle: dextrose 98 % of control | endpoint: mean survival time, dose: 1.25 mg/kg/injection, schedule: Q04DX003 (ip), vehicle: dextrose 108 % of control | endpoint: mean survival time, dose: 5.0 mg/kg/injection, schedule: Q04DX003 (ip), vehicle: dextrose 95 % of control

COc1cc(Cl)ccc1NC(=O)N1CCN(c2ccccc2)CC1
inactive: endpoint: mean survival time, dose: 12.5 mg/kg/injection, schedule: Q01DX009 (ip), vehicle: saline with Tween-80 96 % of control | endpoint: mean survival time, dose: 25.0 mg/kg/injection, schedule: Q01DX009 (ip), vehicle: saline with Tween-80 96 % of control | endpoint: mean survival time, dose: 50.0 mg/kg/injection, schedule: Q01DX009 (ip), vehicle: saline with Tween-80 92 % of control and 93 % of control | [5] 86 % of control

O=C(c1ccccc1)C(Sc1ccccc1)c1ccccc1 (stereo unspecified)
inactive: [4] 97 % of control | [6] 101 % of control | [8] 97 % of control

O=S1(=O)CCCCC1
inactive: endpoint: mean survival time, dose: 37.5 mg/kg/injection, schedule: Q01DX009 (ip), vehicle: saline 98 % of control | endpoint: mean survival time, dose: 75.0 mg/kg/injection, schedule: Q01DX001 (ip), vehicle: saline 104 % of control | endpoint: mean survival time, dose: 75.0 mg/kg/injection, schedule: Q01DX009 (ip), vehicle: saline 98 % of control | endpoint: mean survival time, dose: 75.0 mg/kg/injection, schedule: Q04DX003 (ip), vehicle: saline 93 % of control | endpoint: mean survival time, dose: 150.0 mg/kg/injection, schedule: Q01DX001 (ip), vehicle: saline 96 % of control | endpoint: mean survival time, dose: 150.0 mg/kg/injection, schedule: Q01DX009 (ip), vehicle: saline 98 % of control | endpoint: mean survival time, dose: 150.0 mg/kg/injection, schedule: Q04DX003 (ip), vehicle: saline 96 % of control | endpoint: mean survival time, dose: 300.0 mg/kg/injection, schedule: Q01DX001 (ip), vehicle: saline 95 % of control | endpoint: mean survival time, dose: 300.0 mg/kg/injection, schedule: Q04DX003 (ip), vehicle: saline 100 % of control

N#C[CH2][Sn]([I])([c]1ccccc1)[c]1ccccc1
inactive: endpoint: mean survival time, dose: 0.39 mg/kg/injection, schedule: Q01DX009 (ip), vehicle: saline 103 % of control | endpoint: mean survival time, dose: 0.78 mg/kg/injection, schedule: Q01DX009 (ip), vehicle: saline 100 % of control

CC(C)C(=O)Nc1nc(OCCc2ccc([N+](=O)[O-])cc2)c2ncn(C3CC(O)C(CO)O3)c2n1 (stereo unspecified)
inactive: endpoint: median survival time, dose: 12.5 mg/kg/injection, schedule: Q01DX005 (ip), vehicle: saline with Tween-80 101 % of control | endpoint: median survival time, dose: 25.0 mg/kg/injection, schedule: Q01DX005 (ip), vehicle: saline with Tween-80 97 % of control | endpoint: median survival time, dose: 50.0 mg/kg/injection, schedule: Q01DX005 (ip), vehicle: saline with Tween-80 97 % of control | endpoint: median survival time, dose: 100.0 mg/kg/injection, schedule: Q01DX005 (ip), vehicle: saline with Tween-80 95 % of control | endpoint: median survival time, dose: 200.0 mg/kg/injection, schedule: Q01DX005 (ip), vehicle: saline with Tween-80 86 % of control

CCN1C=C/C(=C/c2cc3scc(-c4ccccc4)[n+]3c3ccccc23)c2ccccc21
inactive: endpoint: mean survival time, dose: 0.01 mg/kg/injection, schedule: Q01DX009 (ip), vehicle: saline 97 % of control | endpoint: mean survival time, dose: 0.02 mg/kg/injection, schedule: Q01DX009 (ip), vehicle: saline 100 % of control | endpoint: mean survival time, dose: 0.04 mg/kg/injection, schedule: Q01DX009 (ip), vehicle: saline 103 % of control

CN(C)S(=O)(=O)Oc1ccc(N)cc1
inactive: [4] 103 % of control | [6] 101 % of control | [8] 104 % of control

OCC1OC(n2ccc3c(NO)ncnc32)C(O)C1O (stereo unspecified)
inactive: endpoint: mean survival time, dose: 5.0 mg/kg/injection, schedule: Q01DX001 (ip), vehicle: saline 111 % of control | endpoint: mean survival time, dose: 10.0 mg/kg/injection, schedule: Q01DX001 (ip), vehicle: saline 118 % of control

COc1nc(=O)n(C2C=CC(=O)O2)cc1F (stereo unspecified)
inactive: endpoint: median survival time, dose: 6.25 mg/kg/injection, schedule: Q01DX009 (ip), vehicle: saline 98 % of control | endpoint: median survival time, dose: 12.5 mg/kg/injection, schedule: Q01DX009 (ip), vehicle: saline 100 % of control | endpoint: median survival time, dose: 25.0 mg/kg/injection, schedule: Q01DX009 (ip), vehicle: saline 108 % of control | endpoint: median survival time, dose: 50.0 mg/kg/injection, schedule: Q01DX009 (ip), vehicle: saline 108 % of control | endpoint: median survival time, dose: 100.0 mg/kg/injection, schedule: Q01DX009 (ip), vehicle: saline 110 % of control

O=[N+]([O-])c1[nH]c(Br)nc1Br
inactive: [4] 95 % of control | [6] 100 % of control

Cc1cc(N)c(S(=O)(=O)NO)cc1Cl
inactive: endpoint: mean survival time, dose: 100.0 mg/kg/injection, schedule: Q01DX001 (ip), vehicle: saline with Tween-80 96 % of control | endpoint: mean survival time, dose: 200.0 mg/kg/injection, schedule: Q01DX001 (ip), vehicle: saline with Tween-80 96 % of control | endpoint: mean survival time, dose: 400.0 mg/kg/injection, schedule: Q01DX001 (ip), vehicle: saline with Tween-80 102 % of control
